System: Human immunodeficiency virus 1
Experiment: Inhibition of HIV-1 replication in human peripheral blood mononuclear cells.
Assay type: functional, organism-based

Question: With `Cc1cn([C@H]2C[C@H](N=[N+]=[N-])[C@@H](CO)O2)c(=O)[nH]c1=O` [ZIDOVUDINE] as the molecule, how does the EC50 read?
Answer: 0.002 µM

Question: `[N-]=[N+]=N[C@H]1C[C@H](n2cc(F)c(=O)[nH]c2=O)O[C@@H]1CO` was tested. Which EC50 did it give?
Answer: 4.8 µM

Question: `CSc1cn([C@H]2C[C@H](N=[N+]=[N-])[C@@H](CO)O2)c(=O)[nH]c1=O` was tested. Which EC50 did it give?
Answer: > 100 µM

Question: For `N#CSc1cn([C@H]2C[C@H](N=[N+]=[N-])[C@@H](CO)O2)c(=O)[nH]c1=O`, which EC50 is on record?
Answer: 5.1 µM

Question: Which EC50 does the source give for `[N-]=[N+]=N[C@H]1C[C@H](n2cc(Br)c(=O)[nH]c2=O)O[C@@H]1CO` here?
Answer: 1 µM

Question: With `C#CCOc1cn([C@H]2C[C@H](N=[N+]=[N-])[C@@H](CO)O2)c(=O)[nH]c1=O` as the molecule, how does the EC50 read?
Answer: 38 µM

Question: With `[N-]=[N+]=N[C@H]1C[C@H](n2cc(N)c(=O)[nH]c2=O)O[C@@H]1CO` as the molecule, how does the EC50 read?
Answer: 6.2 µM

Question: `Cc1nn([C@H]2C[C@H](N=[N+]=[N-])[C@@H](CO)O2)c(=O)[nH]c1=O` was tested. Which EC50 did it give?
Answer: > 100 µM

Question: For `[N-]=[N+]=N[C@H]1C[C@H](n2cc(F)c(N)nc2=O)O[C@@H]1CO`, which EC50 is on record?
Answer: 1 µM

Question: Which EC50 does the source give for `COc1cn([C@H]2C[C@H](N=[N+]=[N-])[C@@H](CO)O2)c(=O)[nH]c1=O` here?
Answer: 70 µM

Question: For `[N-]=[N+]=N[C@H]1C[C@H](n2cc(O)c(=O)[nH]c2=O)O[C@@H]1CO`, which EC50 is on record?
Answer: ~10 µM

Question: `CCOc1cn([C@H]2C[C@H](N=[N+]=[N-])[C@@H](CO)O2)c(=O)[nH]c1=O` was tested. Which EC50 did it give?
Answer: 54 µM

Question: How did the EC50 turn out when `CNc1cn([C@H]2C[C@H](N=[N+]=[N-])[C@@H](CO)O2)c(=O)[nH]c1=O` was run?
Answer: > 100 µM

Question: `[N-]=[N+]=N[C@H]1C[C@H](n2ccc(N)nc2=O)O[C@@H]1CO` was tested. Which EC50 did it give?
Answer: 1.2 µM

Question: With `[N-]=[N+]=N[C@@H]1CC(n2cc(I)c(=O)[nH]c2=O)O[C@@H]1CO` (some centres not stated) as the molecule, how does the EC50 read?
Answer: 1.1 µM

Question: With `[N-]=[N+]=N[C@H]1C[C@H](n2ccc(=O)[nH]c2=O)O[C@@H]1CO` [NAVURIDINE] as the molecule, how does the EC50 read?
Answer: 0.2 µM

Question: For `Cc1cn([C@H]2C[C@H](N=[N+]=[N-])[C@@H](CO)O2)c(=O)n(/C=C/C=O)c1=O`, which EC50 is on record?
Answer: 0.01 µM

Question: Which EC50 does the source give for `C=CCOc1cn([C@H]2C[C@H](N=[N+]=[N-])[C@@H](CO)O2)c(=O)[nH]c1=O` here?
Answer: > 100 µM

Question: For `CN(C)c1cn([C@H]2C[C@H](N=[N+]=[N-])[C@@H](CO)O2)c(=O)[nH]c1=O`, which EC50 is on record?
Answer: > 100 µM

Question: Which EC50 does the source give for `Cc1cn([C@H]2C[C@H](N=[N+]=[N-])[C@@H](CO)O2)c(=O)nc1N` here?
Answer: 5.1 µM

Question: With `N#CCOc1cn([C@H]2C[C@H](N=[N+]=[N-])[C@@H](CO)O2)c(=O)[nH]c1=O` as the molecule, how does the EC50 read?
Answer: 16 µM

Question: Which EC50 does the source give for `[N-]=[N+]=N[C@H]1C[C@H](n2cc(C(F)(F)F)c(=O)[nH]c2=O)O[C@@H]1CO` here?
Answer: > 100 µM
